Experimental data as given in patent US10464890B2, “PGAM1 inhibitors and methods related thereto” (Emory University, priority 2011, dated 2019).
Entries after “also recorded” stand apart in the source; their conditions may differ.

Legend:
[1] = test system: peripheral blood mononucleocytes and bone marrow CD34+ cells from healthy donors; assay: Cells from healthy human donors; assay type: cell-based
Description: Approval of use of human specimens was given by the Institutional Review Board of Emory University School of Medicine. All clinical samples were obtained with informed consent with approval by the Emory University Institutional Review Board. Clinical information for the patients was obtained from the pathological files at Emory University Hospital under the guidelines and with approval from the Institutional Review Board of Emory University School of Medicine and according to the Health Insurance Portability and Accountability Act. Only samples from patients that were not previously treated with chemotherapy or radiation therapy were used. Mononuclear cells (MNCs) were isolated from peripheral blood and bone marrow samples from human leukemia patients or peripheral blood samples from healthy donors using lymphocyte separation medium (Cellgro).
Only samples from patients that were not previously treated with chemotherapy or radiation therapy were used. Mononuclear cells (MNCs) were isolated from peripheral blood and bone marrow samples from human leukemia patients or peripheral blood samples from healthy donors using lymphocyte separation medium (Cellgro).

H1299 cells = assay: Cellular 2-PG and 3-PG measurement; assay type: cell-based, human
Description: Cellular metabolites were extracted and spectrophotometrically measured as described previously with some modifications. To determine cellular concentration of 2-PG and 3-PG, 100 μL of packed cell pellets were homogenized in 1.5 ml of hypotonic lysis buffer (20 mM HEPES (pH 7.0), 5 mM KCl, 1 mM MgCl2, 5 mM DTT, and protease inhibitor cocktail). The homogenates were centrifuged in a cold room at 4° C. for 10 minutes at maximum speed, and the supernatants were applied to Amicon Ultra tubes with 10KDa cut off filter (Millipore). The flow through containing the metabolites was used for the measurement. NADH, ADP, and MgCl2 were added to the flow through to final concentrations of 0.14 mM, 1 mM, and 50 mM, respectively. Recombinant LDH and PKM1 proteins were added to final concentrations of 5 μg/ml and 10 μg/ml, respectively. Recombinant enolase protein was added to a final concentration of 50 μg/ml to measure cellular 2-PG. Once the reaction was initiated by enolase, a decrease in absorbance at 340 nm from NADH oxidation was measured by a DU800 spectrophotometer (Beckman). After termination of the enolase reaction, recombinant PGAM1 protein was added to a final concentration of 25 μg/ml and the decrease in absorbance at 340 nm was immediately monitored to measure cellular 3-PG. 100 μL of 2-PG and 3-PG (Sigma) diluted with 1.5 ml of hypotonic lysis buffer were used as the standards.
Alternatively, perchloric acid was used to quench metabolism and the acid extracts from H1299 cell lysates were then neutralized with KOH (DeBerardinis et al., 2007), followed by enzymatic reactions using the final supernatant to determine the 3-PG and 2-PG levels. An isotope-ratio based detection method was used to determine intracellular 3-PG and 2-PG levels in cells. In brief, pure standards were derivatized with a trimethylsilyl donor (Tri-Sil, Pierce) and used to determine the retention times of 2-PG and 3-PG on GC/MS. These standards were also used to identify parent ions containing all three 2-PG and 3-PG carbons on the derivatized molecule (m/z 459 for both 2-PG and 3-PG), and to generate algorithms for natural isotope abundance correction. Next, two dishes of H1299 cells were cultured in RPMI supplemented with [U-^13C]glucose so that approximately 25% of the total glucose pool was labeled. After 6 hours of culture, the cells were quickly rinsed in ice-cold normal saline, lysed in 1 mL of cold 50% methanol, and frozen in liquid nitrogen. […] The second sample was spiked with 25 nmoles of unlabeled 2-PG and 3-PG, derivatized, and analyzed by GC/MS. […] Assuming a 100 μL volume for the cell pellet, these figures correlate to intracellular concentrations of 66 μM for 2-PG and 81 μM for 3-PG, very close to the values measured by the enzymatic assay.

[2] = Toxicity studies in nude mice; assay type: in vivo
Description: Peripheral blood samples were collected and applied for analysis of hematological properties. The vital organs were collected for histo-pathological analysis. […] Images were analyzed and captured using ImageScope software (Aperio Technologies Inc.) without any additional or subsequent image processing (high power images are 20×; low power images are either 4.0×, 4.2×, or 4.4×). Scale bars are indicated.
An in vivo drug treatment experiment was performed. […] Xenograft experiments were performed by injecting H1299 cells to nude mice.

H1299 cells xenograft = assay: H1299 xenograft in nude mice; assay type: in vivo
[3] = test system: H1299 cells with stable knockdown of PGAM1; assay: 14C-serine synthesis assay; assay type: cell-based, human; details: methyl-2-PG
Description: Serine synthesis flux from ^14C glucose was measured as described previously (Parry, 1957) with modification. Sub-confluent cells seeded on a 6 cm dish were incubated in complete medium spiked with 40 μCi/ml of D-[U-^14C]-glucose overnight. The incubated cells were lysed with hypotonic lysis buffer (20 mM HEPES (pH 7.0), 5 mM KCl, 1 mM MgCl2, 5 mM DTT, and protease inhibitor cocktail), and the cell lysates were spun down by centrifugation to remove cell debris. The supernatant containing 100 μg of total protein was spotted onto Whatman 3MM paper. One-dimensional chromatogram was run in water saturated phenol, and two-dimentional chromatogram was run in 1-butanol:acetic acid:water solution at the ratio of 100:22:50. L-serine (Sigma) was used as a standard. L-serine dissolved in hypotonic lysis buffer was spotted onto another paper, which was run under the same conditions in parallel with the cell lysate sample. Spots of amino acids were developed by ninhydrin reaction. The spot corresponding to serine was identified based on R^f values of L-serine standard, cut out from the paper, and directly subjected to scintillation counting.

[4] = H1299 cells treated with PGMI-004A
[5] = 100 mg/kg/day i.p. for 21 days from 6 days post-injection, vs vehicle

## O=C1c2ccccc2C(=O)c2c1cc(S(=O)(=O)Nc1ccc(C(F)(F)F)cc1)c(O)c2O [PGMI-004A, N-(4-trifluoromethyl)-penyl-3,4-dihydroxy-9,10-dioxo-2-anthracenesulfonamide]
[1]; four healthy donors
  cell viability of CD34+ cells isolated from bone marrow samples: did not affect cell viability
[1]; two healthy human donors, 120 h
  cell viability of mononucleocytes in peripheral blood samples: no toxicity; also recorded: did not affect cell viability
H1299 cells; [4]
  2-PG levels: decreased
  3-PG levels: increased
[2]; 100 mg/kg/day for 7 days
  body weight, complete blood counts (CBC) or hematopoietic properties: did not result in significant alteration
[2]; 100 mg/kg/day intraperitoneally for 7 days, vs vehicle
  histopathological analyses (kidney, lung, liver, spleen): did not reveal significant differences; also recorded: no notable differences
[2]; 100 mg/kg/day intraperitoneally, chronic injection for 4 weeks
  tolerability: well-tolerated
H1299 cells xenograft; [5]
  tumor growth: significantly decreased
  tumor size: significantly decreased
H1299 cells xenograft; xenograft nude mice treated with PGMI-004A
  PGAM1 enzyme activity in resected tumors: effectively inhibits PGAM1 enzyme activity

## COC(=O)[C@@H](CO)OP(=O)(O)O [methyl-2-PG, methyl ester of D(+)-2-phosphoglyceric acid, reference compound]
H1299 cells; diverse PGAM1 knockdown cancer cells treated with methyl-2-PG
  2-PG cellular levels: increased 2-PG cellular levels
H1299 cells; diverse PGAM1 knockdown cells treated with methyl-2-PG
  3-PG concentrations: decreased 3-PG concentrations
[3]
  serine biosynthesis: rescues the phenotype
